Reference: patent US20070212773A1, “Electrical signal measuring device for cells in culture and electrical signal measuring method that uses same device” (priority 2006, published 2007)

Tested on: intestinal Caco-2 cells
Assay: Impedance measurement of Caco-2 cells in culture after adding cupric chloride
Format: cell-based
From the text: The device used is specifically described as follows. That is, the support body is made of PDMS, and the size of the compartment in the support body (the combined size of the upper compartment and the lower compartment) is 15 mm in length, 6 mm in width, and 1.6 mm in height. This compartment is divided into an upper compartment and a lower compartment each with a height of approximately 0.8 mm using a polyester porous membrane which is provided with a diameter of 0.4 μm and a thickness of 14 μm (code 3450, made by CORNING INC.). Gold-plated brass nail-shaped objects with a length of 15 mm, an external diameter of 0.5 mm, and its circular head portion with a thickness of 0.4 mm and a diameter of 1.2 mm are used as the upper electrode and the lower electrode using a flat surface of the head portion as a measuring surface. Also, the upper electrode is fixed to the support body with its surface opposite to the surface facing the lower electrode in contact with the inside surface of the upper support body, while the lower electrode is fixed to the support body with its surface facing the upper electrode in contact with the semipermeable membrane. At this time, the distance between the surfaces of the upper electrode that faces the lower electrode and the lower electrode is 0.4 mm. Then, these electrodes are connected to an alternating-current power supply. Culturing conditions: As the culture medium, 10% fetal bovine serum, 1% MEM nonessential amino acid solution, 20 mM HEPES buffer solution, […] penicillin, 100 μg streptomycin, and 1 μg amphotericin added to DMEM (Dulbecco's Minimum Essential Medium) is used, and culturing is performed at an ambient temperature of 37 degrees C., with the carbon dioxide concentration maintained at 5%. Measurement condition: Measurement is performed by using a commercially available impedance analyzer, by applying an AC electrical field of 10 mV amplitude (1 Hz to 10 MHz) across the electrodes. Using the device used in Example 1, while culturing intestinal Caco-2 cells to which cupric chloride is added; impedance of the cells was measured. The culturing conditions of the cells and impedance measurement conditions are the same as in Example 1. The culture medium was replaced every two days, with the impedance measurement being performed before and after the culture medium replacement. Culturing was normally performed until the seventh day from the start of culturing. After impedance measurement, cupric chloride was added to a concentration of 30 μM to the culture medium, and the cell culturing was continued as it was from the moment directly after the cupric chloride was added (0 hours) to four hours after the addition. After the passage of four hours, the impedance was measured, and the culture medium containing the cupric chloride was washed away by a culture medium not containing the cupric chloride, accordingly washing was performed while the cells in culture were remained in the device. During this period, the impedance of the cells in culture was arbitrarily measured. In the legend shown in FIG. 3, “3 days” means the third day from the start of culturing, while “7 days (4 hours after addition)” means four hours after addition of cupric chloride to the culture medium on the seventh day from the start of culturing.

Q: Which results are given for `[Cl][Cu][Cl]` [cupric chloride]?
A: change in impedance amplitude (membranous structure) (30 μM for 4 h, then washed, 25 hours after the addition, breakdown of the membranous structure): reduction; impedance phase θ around 10^6 Hz region (30 μM for 4 h, then washed, 25 hours after the addition, curve shifted to higher frequency side): −53 degrees; impedance phase θ around 10^6 Hz region (30 μM for 4 h, then washed, 48 hours after the addition, curve shifted to lower frequency side): −58 degrees; change in impedance amplitude (membranous structure) (30 μM for 4 h, then washed, 48 hours after the addition, renewal of the membranous structure): increase; change in impedance amplitude (membranous structure) (30 μM in culture medium, added on seventh day of culturing, until four hours from the addition): hardly any changes; change in impedance phase spectra curve (30 μM, added on seventh day of culturing, until four hours from the addition): without large changes
